Experimental findings from patent US11479556B1, “Bifunctional compounds for degrading BTK via ubiquitin proteosome pathway” (NURIX THERAPEUTICS, INC., priority 2018, dated 2022) are described below.

In one test the target is T1, BTK (Homo sapiens, UniProt Q06187).
T1 construct: endogenous in cells; host or cells: TMD8 cells
Nature of the test: Cellular BTK HTRF assay (BTK degradation) in TMD8 cells. The test is classed as cell-based. Conditions: four hours incubation, Total-BTK HTRF relative to DMSO-treated cells. In outline:
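TMD8 cells were treated with compounds (final DMSO <0.200) for four hours at 37° C, 5% CO2, then lysed for 30 minutes. Total BTK was measured by two-antibody HTRF, taking the 665/620 nm ratio with background subtracted and expressed relative to DMSO-treated cells. DC50 came from four-parameter nonlinear regression.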
On the technique in general: Time-resolved FRET reads energy transfer from a long-lived donor to a nearby acceptor.

The target of a further test is T2, Aiolos (Homo sapiens, UniProt Q96SW2+Q9UKT9).
T2 construct: Frozen human peripheral blood mononuclear cells (PBMCs) were thawed and treated with DMSO or compound for 24 hours; endogenous in cells; host or cells: human PBMCs (T cells gated CD3+CD20-)
Nature of the test: Aiolos degradation flow cytometry assay in human PBMCs (T cells). The test is classed as cell-based. Conditions: 24 hours, T cells (CD3+CD20-), read-out: Aiolos T Cell DC50. Here is the method: Example 67: Aiolos Degradation Assay
Frozen human peripheral blood mononuclear cells (PBMCs) were thawed and treated with DMSO or compound for 24 hours and then fixed and permeabilized using a Foxp3/Transcription Factor Fixation/Permeabilization Kit (eBioscience, 00-5523). Cells were stained with fluorophore-conjugated antibodies against CD20 (Biolegend 302330), CD3 (BD Pharmingen 552127), and Aiolos (Biolegend 371106). An additional set of DMSO-treated PBMCs was stained for CD20, CD3, and an AlexaFluor 647-conjugated mouse IgG1 isotype control antibody (Biolegend 400136). Stained cells were analyzed using an Attune NxT Acoustic Focusing Flow Cytometer (Thermo-Fisher A29004), and data was analyzed using FlowJo (v10.5.3) and GraphPad Prism (v7.00) software. Single lymphocytes were gated for B cells (CD20+CD3−) and T cells (CD3+CD20−), and the geometric mean fluorescence intensity (MFI) of Aiolos was calculated for each population. The MFI of the isotype control was calculated for each population and used to quantify background staining. Percent Aiolos degradation was calculated for each compound-treated sample using the following equation: […]
Four-parameter non-linear regressions were performed in GraphPad Prism 7.02 to obtain DC50 values. Aiolos T Cell DC50 values are provided in Table 4, wherein A<10.0 nM, 10.0 nM≤B≤1000 nM, and 1000 nM<C.
For orientation: A flow cytometer gives signals particle by particle.

T1 sequence (Q06187 whole entry): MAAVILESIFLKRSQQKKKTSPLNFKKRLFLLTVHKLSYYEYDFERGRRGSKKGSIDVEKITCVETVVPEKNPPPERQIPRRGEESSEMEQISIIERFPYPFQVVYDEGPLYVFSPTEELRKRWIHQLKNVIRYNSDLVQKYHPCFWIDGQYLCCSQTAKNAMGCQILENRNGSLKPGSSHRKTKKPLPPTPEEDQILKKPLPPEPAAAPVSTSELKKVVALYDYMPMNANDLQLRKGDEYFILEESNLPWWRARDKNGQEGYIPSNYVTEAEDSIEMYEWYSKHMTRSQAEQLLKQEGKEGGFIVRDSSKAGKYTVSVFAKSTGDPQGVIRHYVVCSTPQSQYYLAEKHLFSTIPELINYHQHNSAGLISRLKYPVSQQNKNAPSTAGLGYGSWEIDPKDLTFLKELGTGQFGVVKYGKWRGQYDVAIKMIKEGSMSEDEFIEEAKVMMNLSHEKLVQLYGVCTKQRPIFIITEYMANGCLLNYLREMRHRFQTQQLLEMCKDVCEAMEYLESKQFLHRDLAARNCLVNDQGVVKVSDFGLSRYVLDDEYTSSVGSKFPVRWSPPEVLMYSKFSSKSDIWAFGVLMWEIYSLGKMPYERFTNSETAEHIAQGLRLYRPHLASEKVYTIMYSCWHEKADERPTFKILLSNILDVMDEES
T2 sequence (Q9UKT9 whole entry): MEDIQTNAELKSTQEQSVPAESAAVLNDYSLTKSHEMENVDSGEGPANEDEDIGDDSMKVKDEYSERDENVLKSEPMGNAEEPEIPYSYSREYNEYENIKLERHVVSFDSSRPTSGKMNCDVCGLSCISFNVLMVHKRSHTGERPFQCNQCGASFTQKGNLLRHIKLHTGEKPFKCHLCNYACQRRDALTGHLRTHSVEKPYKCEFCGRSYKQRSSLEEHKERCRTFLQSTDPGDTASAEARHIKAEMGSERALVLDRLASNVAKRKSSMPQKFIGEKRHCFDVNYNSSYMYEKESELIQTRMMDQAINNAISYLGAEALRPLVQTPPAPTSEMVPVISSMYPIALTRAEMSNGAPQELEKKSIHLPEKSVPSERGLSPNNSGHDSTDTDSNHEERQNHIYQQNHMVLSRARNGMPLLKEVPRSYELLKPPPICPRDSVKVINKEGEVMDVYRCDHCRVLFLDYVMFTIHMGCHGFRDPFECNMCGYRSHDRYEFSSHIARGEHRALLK
T2 sequence (Q96SW2 whole entry): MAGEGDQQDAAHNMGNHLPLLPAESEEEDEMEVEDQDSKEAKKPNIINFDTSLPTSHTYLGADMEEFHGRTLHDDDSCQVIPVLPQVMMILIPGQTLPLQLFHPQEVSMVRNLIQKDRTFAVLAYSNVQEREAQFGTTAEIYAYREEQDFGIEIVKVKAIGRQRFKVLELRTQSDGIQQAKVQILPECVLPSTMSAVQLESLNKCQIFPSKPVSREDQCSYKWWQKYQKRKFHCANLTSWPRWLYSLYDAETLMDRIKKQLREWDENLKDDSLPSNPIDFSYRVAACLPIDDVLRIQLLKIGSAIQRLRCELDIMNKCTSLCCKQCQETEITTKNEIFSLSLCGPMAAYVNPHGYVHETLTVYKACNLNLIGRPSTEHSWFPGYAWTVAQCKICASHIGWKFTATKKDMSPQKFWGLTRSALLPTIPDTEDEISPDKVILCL
T2 sequence (Q16531 whole entry partner): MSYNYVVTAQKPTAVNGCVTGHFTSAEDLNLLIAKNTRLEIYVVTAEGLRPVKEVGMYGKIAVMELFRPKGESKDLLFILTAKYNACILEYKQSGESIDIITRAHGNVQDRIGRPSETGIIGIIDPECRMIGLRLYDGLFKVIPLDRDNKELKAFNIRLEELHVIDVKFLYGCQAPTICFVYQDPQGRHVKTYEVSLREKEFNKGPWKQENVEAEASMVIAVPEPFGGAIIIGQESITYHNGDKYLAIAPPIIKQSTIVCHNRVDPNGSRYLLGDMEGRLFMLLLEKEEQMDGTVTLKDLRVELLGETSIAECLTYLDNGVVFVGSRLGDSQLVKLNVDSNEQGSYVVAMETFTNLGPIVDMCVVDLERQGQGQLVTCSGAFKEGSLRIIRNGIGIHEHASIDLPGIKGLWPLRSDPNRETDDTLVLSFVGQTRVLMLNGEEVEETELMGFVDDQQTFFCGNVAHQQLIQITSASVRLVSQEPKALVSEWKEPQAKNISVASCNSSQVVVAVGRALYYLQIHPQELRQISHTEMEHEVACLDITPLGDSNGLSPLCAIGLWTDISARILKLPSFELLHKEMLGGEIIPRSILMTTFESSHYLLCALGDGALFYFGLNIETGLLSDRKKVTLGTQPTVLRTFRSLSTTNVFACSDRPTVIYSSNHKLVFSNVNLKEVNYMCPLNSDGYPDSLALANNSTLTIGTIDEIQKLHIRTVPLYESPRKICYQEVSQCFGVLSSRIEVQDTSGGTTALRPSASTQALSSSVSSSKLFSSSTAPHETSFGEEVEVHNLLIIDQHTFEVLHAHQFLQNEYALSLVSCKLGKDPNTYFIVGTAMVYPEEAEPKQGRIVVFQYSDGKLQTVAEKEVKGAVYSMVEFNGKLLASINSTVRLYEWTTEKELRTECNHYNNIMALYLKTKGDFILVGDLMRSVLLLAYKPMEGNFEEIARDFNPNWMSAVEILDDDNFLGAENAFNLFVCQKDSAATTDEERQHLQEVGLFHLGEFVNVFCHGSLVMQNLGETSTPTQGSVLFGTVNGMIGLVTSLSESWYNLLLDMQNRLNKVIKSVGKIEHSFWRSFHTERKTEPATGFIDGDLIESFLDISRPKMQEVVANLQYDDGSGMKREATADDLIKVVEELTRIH

On to `CN1CCN([C@@H]2CCCN(c3cnc(C(N)=O)c(Nc4ccc(C5(C)CCN(C(=O)CCOCCC(=O)Nc6cccc7c6CN(C6CCC(=O)NC6=O)C7=O)CC5)cc4)n3)C2)C1=O` (stereo partly shown) [Compound 14], for which the 50% degradation concentration (DC50) (commonly the concentration giving 50% degradation) at BTK was greater than 0.015 µM; on Aiolos it was greater than 1 µM. Turning to `CN1CCN([C@@H]2CCCN(c3cnc(C(N)=O)c(Nc4ccc(N5CCN(CCCCc6cccc7c6CN(C6CCC(=O)NC6=O)C7=O)CC5)cc4)n3)C2)C1=O` (stereo partly shown) [Compound 17], the DC50 at BTK was less than 0.005 µM; on Aiolos, 0.01 to 1 µM.

As for `CN1CCN([C@@H]2CCCN(c3cnc(C(N)=O)c(Nc4ccc(C5CCN(C(=O)CCOCCNc6cccc7c6C(=O)N(C6CCC(=O)NC6=O)C7=O)CC5)cc4)n3)C2)C1=O` (stereo partly shown) [Compound 25], the results for the DC50 at BTK and on Aiolos were 0.005 to 0.015 µM and less than 0.01 µM, respectively. `CN1CCN([C@@H]2CCCN(c3cnc(C(N)=O)c(Nc4ccc(N5CCC6(CCCN(c7ccc8c(c7)C(=O)N(C7CCC(=O)NC7=O)C8=O)C6)CC5)cc4)n3)C2)C1=O` (stereo partly shown) [Compound 29]: the DC50 was less than 0.005 µM on BTK and greater than 1 µM at Aiolos. Regarding `CN1CCN([C@@H]2CCCN(c3cnc(C(N)=O)c(Nc4ccc5c(c4)CCN(C4CN(c6ccc7c(c6)C(=O)N(C6CCC(=O)NC6=O)C7=O)C4)C5)n3)C2)C1=O` (stereo partly shown) [Compound 30], the DC50 is 0.005 to 0.015 µM on BTK and less than 0.01 µM at Aiolos. For `CN1CCN([C@@H]2CCCN(c3cnc(C(N)=O)c(Nc4ccc5c(c4)CCN(CC4CCN(c6ccc7c(c6)C(=O)N(C6CCC(=O)NC6=O)C7=O)CC4)C5)n3)C2)C1=O` (stereo partly shown) [Compound 31], the DC50 is less than 0.005 µM on BTK and 0.01 to 1 µM on Aiolos. `CN1CCN([C@@H]2CCCN(c3cnc(C(N)=O)c(Nc4ccc(N5CC6(C5)CN(c5ccc7c(c5)C(=O)N(C5CCC(=O)NC5=O)C7=O)C6)cc4)n3)C2)C1=O` (stereo partly drawn) [Compound 34, 3-((4-(6-(2-(2,6-dioxopiperidin-3-yl)-1,3-dioxoisoindolin-5-yl)-2,6-diazaspiro[3.3]heptan-2-yl)phenyl)amino)-5-((R)-3-(3-methyl-2-oxoimidazolidin-1-yl)piperidin-1-yl)pyrazine-2-carboxamide]: the results for the DC50 at BTK and at Aiolos were less than 0.005 µM and 0.01 to 1 µM, respectively. For `CN1CCN([C@@H]2CCCN(c3cnc(C(N)=O)c(Nc4ccc(C5CN(C6CCN(c7ccc8c(c7)C(=O)N(C7CCC(=O)NC7=O)C8=O)CC6)C5)cc4)n3)C2)C1=O` (stereo partly shown) [Compound 37], in that order: less than 0.005 µM and 0.01 to 1 µM. For `CN1CCN([C@@H]2CCCN(c3cnc(C(N)=O)c(Nc4ccc(N5CCN(C[C@@H]6[C@H]7CN(c8ccc9c(c8)C(=O)N(C8CCC(=O)NC8=O)C9=O)C[C@@H]67)CC5)cc4)n3)C2)C1=O` (stereo partly shown) [Compound 38], the DC50 on BTK was less than 0.005 µM; on Aiolos, 0.01 to 1 µM. With `CN1CCN([C@@H]2CCCN(c3cnc(C(N)=O)c(Nc4ccc(C5CCN(CC6CCN(c7ccc8c(c7)C(=O)N(C7CCC(=O)NC7=O)C8=O)CC6)CC5)cc4)n3)C2)C1=O` (stereo partly shown) [Compound 51], the results for the DC50 at BTK and on Aiolos were less than 0.005 µM and 0.01 to 1 µM, respectively. Turning to `CN1CCN([C@@H]2CCCN(c3cnc(C(N)=O)c(Nc4ccc(C5CCN(C6CN(c7ccc8c(c7)C(=O)N(C7CCC(=O)NC7=O)C8=O)C6)CC5)cc4)n3)C2)C1=O` (stereo partly shown) [Compound 53], the DC50 on BTK was less than 0.005 µM; at Aiolos it was 0.01 to 1 µM. Consider `CN1CCN([C@@H]2CCCN(c3cnc(C(N)=O)c(Nc4ccc(N5CCN(C(=O)CCOCCCc6ccc7c(c6)C(=O)N(C6CCC(=O)NC6=O)C7)CC5)cc4)n3)C2)C1=O` (stereo partly shown) [Compound 61], for which the DC50 at BTK was less than 0.005 µM; on Aiolos, greater than 1 µM.

Take `CN1CCN([C@@H]2CCCN(c3cnc(C(N)=O)c(Nc4ccc(OCCCNc5ccc6c(c5)C(=O)N(C5CCC(=O)NC5=O)C6=O)cc4)n3)C2)C1=O` (stereo partly shown) [Compound 64]: the results for the DC50 on BTK and on Aiolos were greater than 0.015 µM and 0.01 to 1 µM, respectively. `CN1CCN([C@@H]2CCCN(c3cnc(C(N)=O)c(Nc4ccc(C5(C)CCN(C6CN(Cc7ccc8c(c7)C(=O)N(C7CCC(=O)NC7=O)C8=O)C6)CC5)cc4)n3)C2)C1=O` (stereo partly shown) [Compound 75]: the DC50 at BTK is less than 0.005 µM; at Aiolos, greater than 1 µM.

Take `CN1CCN([C@H]2CCCN(c3cnc(C(N)=O)c(Nc4cnn(C5CCN(CC6CN(c7ccc8c(c7)C(=O)N(C7CCC(=O)NC7=O)C8=O)C6)CC5)c4)n3)C2)C1=O` (stereo partly shown) [Compound 78]: the figures for the DC50 on BTK and at Aiolos were less than 0.005 µM and 0.01 to 1 µM, respectively. Regarding `CN1CCN([C@H]2CCCN(c3cnc(C(N)=O)c(Nc4ccc5c(c4)CCN(CC4CN(c6ccc7c(c6)C(=O)N(C6CCC(=O)NC6=O)C7=O)C4)C5)n3)C2)C1=O` (stereo partly shown) [Compound 92], the DC50 on BTK is 0.005 to 0.015 µM; on Aiolos it was less than 0.01 µM. `CN1CCN([C@H]2CCCN(c3cnc(C(N)=O)c(Nc4ccc(N5CCN(CC#Cc6cccc7c6CN(C6CCC(=O)NC6=O)C7=O)CC5)cc4)n3)C2)C1=O` (stereo partly shown) [Compound 99]: the DC50 was less than 0.005 µM on BTK and greater than 1 µM on Aiolos. Turning to `NC(=O)c1ncc(N2CCCCC2)nc1Nc1ccc(N2CCC3(CCN(Cc4ccc5c(c4)C(=O)N(C4CCC(=O)NC4=O)C5=O)CC3)CC2)cc1` (stereo not shown) [Compound 123], the values for the DC50 at BTK and at Aiolos were 0.005 to 0.015 µM and greater than 1 µM, respectively.

Compound `Cn1c(-c2ccc(N3CCC(CN4CCC(c5ccc(Nc6nc(N7CCCC8(COC8)C7)cnc6C(N)=O)cc5)CC4)CC3)cc2)nn(C2CCC(=O)NC2=O)c1=O` (stereo not shown) [Compound 178] gave a DC50 at BTK of 0.005 to 0.015 µM. The compound `Cn1c(=O)n(C2CCC(=O)NC2=O)c2ccc(N3CCC(CN4CCC(c5ccc(Nc6nc(N7CCCCC7)cnc6C(N)=O)cc5)CC4)CC3)cc21` (stereo not shown) [Compound 179] returned a DC50 at BTK of less than 0.005 µM. Same read-out and setting: the figure for `CN1CCN([C@@H]2CCCN(c3cnc(C(N)=O)c(Nc4ccc(C5CCN(CC6CCN(c7ccc(N(C)C8CCC(=O)NC8=O)cn7)CC6)CC5)cc4)n3)C2)C1=O` (stereo partly shown) [Compound 180] is greater than 0.015 µM; for `CN(c1ccc(N2CCC(CN3CCC(c4ccc(Nc5nc(N6CCCCC6)cnc5C(N)=O)cc4)CC3)CC2)nc1)C1CCC(=O)NC1=O` (stereo not shown) [Compound 181] it is 0.005 to 0.015 µM; for `NC(=O)c1ncc(N2CCCCC2)nc1Nc1ccc(C2CCN(CC3CCN(c4ccc(C(=O)NC5CCC(=O)NC5=O)nc4)CC3)CC2)cc1` (stereo not shown) [Compound 182] it is less than 0.005 µM. On BTK, `CNC(C)C(=O)N[C@H](C(=O)N1C[C@@H](NC(=O)CCOCCOCCOCCOCCC(=O)N2CCC(c3ccc(Nc4nc(N5CCC[C@@H](N6CCN(C)C6=O)C5)cnc4C(N)=O)cc3)CC2)C[C@H]1C(=O)N[C@@H]1CCCc2ccccc21)C1CCCCC1` (stereo partly shown) [Compound 183] came in with a DC50 greater than 0.015 µM. Consider `CN1CCN([C@@H]2CCCN(c3cnc(C(N)=O)c(Nc4ccc(C5CCN(C(=O)CNc6cccc7c6C(=O)N(C6CCC(=O)NC6=O)C7=O)CC5)cc4)n3)C2)C1=O` (stereo partly shown) [Compound 184], for which, on BTK, the DC50 was in the range of 0.005 to 0.015 µM.

As to `NC(=O)c1ncc(N2CCCCC2)nc1Nc1ccc(C2CCN(CC3CCN(c4ccc(CC5CCC(=O)NC5=O)cn4)CC3)CC2)cc1` (stereo not shown) [Compound 185], on BTK, the DC50 is greater than 0.015 µM. As for `Cc1ncsc1-c1ccc(CNC(=O)[C@@H]2C[C@@H](O)CN2C(=O)[C@@H](NC(=O)C2(F)CC2)C(C)(C)C)c(OCCCCCCCC(=O)N2CCC(c3ccc(Nc4nc(N5CCC[C@@H](N6CCN(C)C6=O)C5)cnc4C(N)=O)cc3)CC2)c1` [Compound 186], the DC50 at BTK was greater than 0.015 µM. Turning to `Cc1ncsc1-c1ccc(CNC(=O)[C@@H]2C[C@@H](O)CN2C(=O)[C@@H](NC(=O)C2(F)CC2)C(C)(C)C)c(OCCCCCC(=O)N2CCC(c3ccc(Nc4nc(N5CCC[C@@H](N6CCN(C)C6=O)C5)cnc4C(N)=O)cc3)CC2)c1` [Compound 187], the DC50 at BTK was greater than 0.015 µM. `Cc1ncsc1-c1ccc([C@H](C)NC(=O)[C@@H]2C[C@@H](O)CN2C(=O)[C@@H](NC(=O)CCCCCCCC(=O)N2CCC(c3ccc(Nc4nc(N5CCC[C@@H](N6CCN(C)C6=O)C5)cnc4C(N)=O)cc3)CC2)C(C)(C)C)cc1` [Compound 188]: at BTK, the DC50 is greater than 0.015 µM. As to `Cc1ncsc1-c1ccc([C@H](C)NC(=O)[C@@H]2C[C@@H](O)CN2C(=O)[C@@H](NC(=O)CCCCCC(=O)N2CCC(c3ccc(Nc4nc(N5CCC[C@@H](N6CCN(C)C6=O)C5)cnc4C(N)=O)cc3)CC2)C(C)(C)C)cc1` [Compound 189], on BTK, the DC50 is greater than 0.015 µM.

`CN1CCN([C@@H]2CCCN(c3cnc(C(N)=O)c(Nc4ccc(C5CCN(CC6CCN(c7ccc(CC8CCC(=O)NC8=O)cn7)CC6)CC5)cc4)n3)C2)C1=O` (stereo partly shown) [Compound 190] registered a DC50 at BTK of 0.005 to 0.015 µM. The same measure, in the same setting: in the case of `NC(=O)c1ncc(N2CCCCC2)nc1Nc1ccc(C2CCN(CC3CCN(c4ncc(C(=O)NC5CCC(=O)NC5=O)o4)CC3)CC2)cc1` (stereo not shown) [Compound 191] it was 0.005 to 0.015 µM; in that of `CN1CCN([C@@H]2CCCN(c3cnc(C(N)=O)c(Nc4ccc(C5CCN(CC6CCN(c7ncc(C(=O)NC8CCC(=O)NC8=O)o7)CC6)CC5)cc4)n3)C2)C1=O` (stereo partly shown) [Compound 192], less than 0.005 µM.

On BTK, `NC(=O)c1ncc(N2CCC[C@@H](CO)C2)nc1Nc1ccc(C2CCN(C[C@@H]3CCN(c4ccc5c(c4)C(=O)N(C4CCC(=O)NC4=O)C5=O)C3)CC2)cc1` (stereo partly shown) [Compound 193] gave a DC50 of less than 0.005 µM.
